What all share (test): NCI-60 cell line screen, 48 h
The test system of test [1] is HOP-92 NSCLC.
The test system of test [2] is RPMI-8226 leukemia.
The subject of test [3] is CAKI-1 renal.
For test [4], the system named is 786-0 renal.
Test [5] deals with SN12C renal.
For test [6], the system named is M14 melanoma.
The subject of test [7] is NCI-H522 lung.
In test [8] the test system is NCI-H23 lung.
For test [9], the system named is SNB-19 CNS.
Test [10] concerns MOLT-4 leukemia.

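Each compound was tested at five concentrations against cells in 96-well plates for 48 hours. GI50 is the concentration that inhibits growth by half. TGI: concentration producing complete growth inhibition.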

As to `CCOC(=O)C1=CSC2=NC3=C(CCC/C3=C\c3cc(OC)c(OC)c(OC)c3)C(c3cc(OC)c(OC)c(OC)c3)N12` (stereo not drawn), the GI50 was 0.818 µM in test [1], 0.333 µM in test [2], 6.77 µM in test [3] and > 100 µM in test [4]. For the same compound, the TGI is 7.5 µM in test [1], 1.67 µM in test [2], > 100 µM in test [3] and > 100 µM in test [4].
On to `O=CC(O)C(O)C(OC1OC(CO)C(O)C(O)C1O)C(O)CO` (stereo not drawn) (tested in a mixture with another compound), for which the TGI is > 100 µM in test [1]; > 100 µM in [5]; > 100 µM in [6]; > 100 µM in [7]; > 100 µM in [8]; 59.2 µM in test [2]. Moreover, the TGI in test [3], in test [9] and in test [4] was > 100 µM throughout.
As for `CC(C)=CC(=O)CC(=O)C(=O)NCCNC(=O)C(=O)CC(=O)C=C(C)C`, the TGI in test [1], in test [5], in test [6], in test [8], in test [2] and in [3] was > 50 µM each time. Also, the TGI in test [9] and in test [4] was > 50 µM in each case.
`C1CCN2CC3CONC3C2C1` (stereo not drawn): the TGI in [5], in test [6], in test [7], in [8], in test [2] and in [3] was > 100 µM throughout. Also, the TGI in [9], in test [4] and in [10] was > 100 µM throughout.
As to `Cn1cc(NC(=O)c2cc(NC(=O)CCCCCCCC(=O)Nc3cc(C(=O)Nc4cc(C(=O)NCCC(=N)N)n(C)c4)n(C)c3)cn2C)cc1C(=O)NCCC(=N)N`, the TGI in [1] was > 100 µM; in [5] it was 41 µM; in test [6] it was > 100 µM; in test [8] it was 33.7 µM; in [3] it was 47.5 µM; in [9] it was > 100 µM. In addition, the TGI in test [4] is > 100 µM; in test [10], 66.7 µM.
For `COc1ccc2c3c(c(C(=O)O)oc13)C(CCC(=O)O)CC2` (stereo not drawn), the TGI in test [1], in test [5], in test [6], in [8], in test [3] and in [9] was > 100 µM throughout. The TGI in test [4] was > 100 µM.
With `NNC(=O)N/N=C1\CNC(=O)C(=O)C1c1nc2ccccc2s1` (stereo not drawn), the TGI in test [1], in test [5], in [6], in test [7], in test [8] and in [2] was > 100 µM in each case. Moreover, the TGI in [3], in test [9] and in test [4] was > 100 µM in each case.
Regarding `COc1ncc2cc1NS(=O)(=O)c1cccc(c1)C(=O)NCC1=CC=C(S1)c1ncnc3c1SC2=C3C`, the GI50 is 0.0526 µM in test [1]; 0.395 µM in test [5]; 0.0992 µM in test [6]; 0.467 µM in [7]; 0.202 µM in test [2]; 0.0795 µM in [3]. Moreover, the GI50 in [4] is 0.31 µM. Besides, the TGI in test [1] amounted to 0.667 µM; in [5] it was 18.3 µM; in [6] it was 1.89 µM; in [7], 2.61 µM; in test [2], 0.588 µM; in [3], 10.3 µM. Besides, the TGI in [4] was determined as 2.74 µM.
For the compound `CC(C)(C)c1cc(C(OCCl)(C(F)(F)F)C(F)(F)F)c2c(c1)C(C(F)(F)F)(C(F)(F)F)OC21c2ccccc2C(=O)c2ccccc21`, the TGI in [5], in [6], in test [7], in test [8], in test [2] and in test [3] was > 100 µM throughout. Besides, the TGI in [9], in test [4] and in [10] was > 100 µM each time.
`CN(C)CCS(=O)(=O)Nc1cc(-c2ccc3ncnc(Nc4ccc(F)c(Cl)c4)c3c2)cnc1Cl`: the GI50 in [1] was 0.0757 µM; in [5], 0.624 µM; in [6] it was 0.655 µM; in test [8] it was 0.577 µM; in [2] it was 1.04 µM; in [9], 1.91 µM. The GI50 is 1.34 µM in [4] and 0.257 µM in test [10]. Besides, the TGI in test [1] is 0.513 µM; in [5] it was > 100 µM; in [6], > 35.4 µM; in test [8] it was > 100 µM; in test [2] it was 4.52 µM; in test [9], > 100 µM. For the same compound, the TGI in [4] was > 100 µM; in test [10] it was 0.69 µM.
On to `Cc1nn2c(-c3nc4cc(Cl)c(Cl)cc4[nH]3)c(-c3ccc(F)cc3)nc2s1`, for which the GI50 in test [5] was 7.92 µM; in test [6] it was 5.94 µM; in [7], 6.35 µM; in test [8], 21.7 µM; in test [2] it was 2.44 µM; in test [3], 7.09 µM. The figures for the GI50 in test [9], in test [4] and in test [10] were 5.18 µM, 1.75 µM and > 100 µM, respectively. Further, the TGI was > 100 µM in [5]; > 100 µM in test [6]; 55.8 µM in test [7]; > 61.4 µM in test [8]; > 100 µM in test [2]; > 59.4 µM in [3]. The TGI was > 76.8 µM in test [9], 3.33 µM in [4] and > 100 µM in test [10].
Regarding `CCN(CCNc1ccc(C)c2sc3cc(Cl)ccc3c(=O)c12)CC(C)(C)O`, the GI50 in test [5] was 20.8 µM; in test [6], 1.95 µM; in test [7], 3.82 µM; in test [8] it was 6.88 µM; in [2], 3.86 µM; in [3], 1.51 µM. Besides, the GI50 is 10.1 µM in test [9], 5.13 µM in test [4] and 15.5 µM in test [10]. The TGI was > 100 µM in test [5]; 4.01 µM in [6]; 20 µM in [7]; 24.1 µM in test [8]; 22.2 µM in test [2]; 4.9 µM in test [3]. Moreover, the TGI in [9] was determined as 25.8 µM; in test [4], 17.7 µM; in test [10], 73.7 µM.
